Results from EP4011367A1, “COMPOUNDS FOR USE IN THE TREATMENT OF COVID-19” (priority 2020, dated 2022).
Structures can show the parent of a compound that is named as a salt. Where two headings read alike, the source gives them in different places.

Target: T1, SARS-CoV-2 3CL-Pro (Severe acute respiratory syndrome coronavirus 2, UniProt P0DTD1)
T1 construct: SARS-CoV-2 main protease (3CL-Pro), also termed M-Pro
Test: biochemical
Details: for inhibition at 20 µM: read-out: 3CL-Pro Inhibition [%] Primary Screen (20 µM)

[1] = dose response, 8 concentrations, absence of DTT, 60 min pre-incubation at 37 °C, 15 µM substrate, 60 nM enzyme, read-out: IC50

COc1ccc2[nH]c([S+]([O-])Cc3ncc(C)c(OC)c3C)nc2n1 (racemic) [compound 9, (±)-5-Methoxy-2-(4-methoxy-3,5-dimethylpyridin-2-ylmethylsulfinyl)imidazo[4,5-b]pyridine]
IC50: 0.97 µM | inhibition at 20 µM: 69.1%

Oc1cc2c(cc1O)[C@@H]1c3ccccc3CN[C@H]1CC2 (relative stereo) [compound 77, trans-10,11-Dihydroxy-5,6,6a,7,8,12b-hexahydrobenzo[a]phenanthridine]
IC50: 1.05 µM

O=c1cc(-c2ccccc2)oc2cc(O)c(O)c(O)c12 [compound 1, 5,6,7-Trihydroxy-2-phenyl-4H-1-benzopyran-4-one]
inhibition at 20 µM: 97.8%

O=C1c2c(O)cc(O)cc2O[C@H](c2cc(O)c(O)c(O)c2)[C@H]1O [compound 2, (+)-3(R),5,7-Trihydroxy-2(R)-(3,4,5-trihydroxyphenyl)-3,4-dihydro-2H-1-benzopyran-4-one]
inhibition at 20 µM: 99.7%

O=c1cc(-c2ccc(O)cc2)oc2cc(O)cc(O)c12 [compound 4, 4',5,7-Trihydroxyflavone]
inhibition at 20 µM: 94.5% | IC50 (read-out: IC50): 3.02 µM

C[C@@H]1O[C@@H](Oc2c(-c3cc(O)c(O)c(O)c3)oc3cc(O)cc(O)c3c2=O)[C@H](O)[C@H](O)[C@H]1O [compound 5, 5,7-Dihydroxy-4-oxo-2-(3,4,5-trihydroxyphenyl)-4H-1-benzopyran-3-yl alpha-L-rhamnopyranoside]
IC50: 3.66 µM | inhibition at 20 µM: 90.6%

O=C(O[C@@H]1Cc2c(O)cc(O)cc2O[C@@H]1c1cc(O)c(O)c(O)c1)c1cc(O)c(O)c(O)c1 [compound 6, (-)-3,4,5-Trihydroxybenzoic acid 5,7-dihydroxy-2(R)-(3,4,5-trihydroxyphenyl)-3,4-dihydro-2H-1-benzopyran-3(R)-ylester]
inhibition at 20 µM: 95.3%

COCCCOc1ccnc(C[S+]([O-])c2nc3ccccc3[nH]2)c1C (centres unmarked) [compound 8, 2-[4-(3-Methoxypropoxy)-3-methylpyridin-2-ylmethylsulfinyl]benzimidazol-1-ide sodium salt]
inhibition at 20 µM: 94.3% | IC50 (read-out: IC50): 0.74 µM

O=c1c2ccccc2[se]n1-c1ccccc1 [compound 10, 2-Phenyl-1,2-benzisoselenazol-3(2H)-one]
inhibition at 20 µM: 100%

Cc1ccc(C)c(-n2sc3cc(F)ccc3c2=O)c1 [compound 11, 2-(2,5-Dimethylphenyl)-6-fluoro-1,2-benzothiazol-3(2H)-one]
inhibition at 20 µM: 101% | IC50 (read-out: IC50): 0.02 µM

Cc1ccc(-n2sc3ccccc3c2=O)cc1 [compound 12, 2-(4-methylphenyl)-1,2-benzothiazol-3-one]
IC50: 0.02 µM | inhibition at 20 µM: 101%

CN(C)S(=O)(=O)c1cccc(-n2sc3ccccc3c2=O)c1 [compound 13, N,N-di methyl-3-(3-oxo-1,2-benzothiazol-2-yl)benzenesulfonamide]
IC50 [1]: 0.02 µM | inhibition at 20 µM: 101%

O=c1c2ccccc2sn1-c1ccccc1 [compound 14, 2-phenyl-1,2-benzothiazol-3-one]
IC50: 0.02 µM | inhibition at 20 µM: 100%

O=C1C(Cl)=C(N2CCOCC2)C(=O)N1c1ccc(Cl)c(Cl)c1 [compound 15, 3-chloro-1-(3,4-dichlorophenyl)-4-morpholin-4-ylpyrrole-2,5-dione]
inhibition at 20 µM: 99.2% | IC50 (read-out: IC50): 1.14 µM

CN1CCN(C2=C(Cl)C(=O)N(c3ccc(Cl)c(Cl)c3)C2=O)CC1 [compound 16, 3-chloro-1-(3,4-dichlorophenyl)-4-(4-methylpiperazin-1-yl)pyrrole-2,5-dione]
inhibition at 20 µM: 100%

Cc1ccc(S(=O)(=O)C=CC#N)cc1 [compound 17, 3-(4-Methylphenylsulfonyl)-2-propenenitrile]
IC50: 0.82 µM | inhibition at 20 µM: 95.7%

CC(C)(C)c1ccc(S(=O)(=O)/C=C/C#N)cc1 [compound 18, 3-(4-tert-Butylphenylsulfonyl)-2(E)-propenenitrile]
inhibition at 20 µM: 100% | IC50 (read-out: IC50): 0.84 µM

Cn1sc(=O)n(Cc2ccccc2)c1=O [compound 19, 4-Benzyl-2-methyl-1,2,4-thiadiazolidine-3,5-dione]
inhibition at 20 µM: 101% | IC50 (read-out: IC50): 0.14 µM

S=c1[nH]nc(Cc2ccccc2)s1 [compound 20, 5-benzyl-3H-1,3,4-thiadiazole-2-thione]
IC50 [1]: 0.39 µM | inhibition at 20 µM: 101%

Cc1ccc(S(=O)(=O)N[C@@H](Cc2ccccc2)C(=O)C(=O)CCl)cc1 [compound 21, N-[(2S)-5-chloro-3,4-dioxo-1-phenylpentan-2-yl]-4-methylbenzenesulfonamide]
IC50: 1.37 µM | inhibition at 20 µM: 99.7%

CC(Cc1ccc(O)c(O)c1)C(C)Cc1ccc(O)c(O)c1 (centres unmarked) [compound 22, 4-[4-(3,4-dihydroxyphenyl)-2,3-dimethylbutyl]benzene-1,2-diol]
inhibition at 20 µM: 98.5% | IC50 (read-out: IC50): 2.59 µM

O=C1C2CC=CCC2C(=O)N1SC(Cl)(Cl)Cl (centres unmarked) [compound 23, 2-(trichloromethylsulfanyl)-3a,4,7,7a-tetrahydroisoindole-1,3-dione]
inhibition at 20 µM: 99.8% | IC50 (read-out: IC50): 0.67 µM

S=c1[nH]c2ccccc2s1 [compound 24, 3H-1,3-benzothiazole-2-thione]
inhibition at 20 µM: 94% | IC50 (read-out: IC50): 1.74 µM

c1ccc2sc(SNC3CCCCC3)nc2c1 [compound 26, N-(1,3-benzothiazol-2-ylsulfanyl)cyclohexanamine]
inhibition at 20 µM: 70.1% | IC50 (read-out: IC50): 0.77 µM

c1ccc2sc(SN3CCOCC3)nc2c1 [compound 27, 4-(1,3-benzothiazol-2-ylsulfanyl)morpholine]
inhibition at 20 µM: 99% | IC50 (read-out: IC50): 5.05 µM

CCC(C)SSc1ncc[nH]1 (centres unmarked) [compound 28, (2-Imidazolyl)(1-methylpropyl)disulfide]
inhibition at 20 µM: 100%

O=C(O)c1ccc(SSc2ccc(C(=O)O)cn2)nc1 [compound 29, 6-[(5-carboxypyridin-2-yl)disulfanyl]pyridine-3-carboxylic acid]
inhibition at 20 µM: 100% | IC50 (read-out: IC50): 0.24 µM

Oc1ccc2ccccc2c1SSc1c(O)ccc2ccccc12 [compound 30, 1,1'-Disulfanediylbis(2-naphthol)]
inhibition at 20 µM: 91.3% | IC50 (read-out: IC50): 0.51 µM

O=C1C=Cc2cc(Br)ccc2C1=O [compound 32, 6-Bromonaphthalene-1,2-dione]
inhibition at 20 µM: 102% | IC50 (read-out: IC50): 0.04 µM

C=CC(=O)c1ccc2ccccc2c1 [compound 33, 1-naphthalen-2-ylprop-2-en-1-one]
inhibition at 20 µM: 94.5% | IC50 (read-out: IC50): 1.24 µM

Nc1ccc(O)c2ncccc12 [compound 34, 5-aminoquinolin-8-ol]
inhibition at 20 µM: 99.3% | IC50 (read-out: IC50): 2.05 µM

CCC(=O)OCN1C(=O)C=CC1=O [compound 36, Propionic acid 2,5-dioxo-2,5-dihydro-1H-pyrrol-1-ylmethyl ester]
inhibition at 20 µM: 100% | IC50 (read-out: IC50): 0.29 µM

CN(C)CCNc1nc2cc(O)ccc2c2c1C(=O)c1ccccc1-2 [compound 38, 6-[2-(Dimethylamino)ethylamino]-3-hydroxy-7H-indeno[2,1-c]quinolin-7-one dihydrochloride]
inhibition at 20 µM: 96.1% | IC50 (read-out: IC50): 2.99 µM

CCCC[C@@H](C=O)NC(=O)[C@H](CC(C)C)NC(=O)OCc1ccccc1 [compound 39, N2-[(Benzyloxy)carbonyl]-N-[(2S)-1-oxohexan-2-yl]-L-leucinamide]
inhibition at 20 µM: 81%

CC(C)[C@H](NC(=O)[C@H](CCC(=O)O)NC(=O)[C@H](CC(=O)O)NC(=O)OCc1ccccc1)C(=O)N[C@@H](CC(=O)O)C(=O)CF [compound 40, N-(Benzyloxycarbonyl)-L-aspartyl-L-glutamyl-L-valyl-L-aspartylfluoromethane]
IC50: 0.01 µM | inhibition at 20 µM: 100%

CC(=O)[O-].[Hg+][c]1ccccc1 [compound 42, acetyloxy(phenyl)mercury]
IC50: 0.01 µM

O=C1C(Cl)=C(Cl)C(=O)C(Cl)=C1Cl [compound 43, 2,3,5,6-tetrachlorocyclohexa-2,5-diene-1,4-dione]
inhibition at 20 µM: 101% | IC50 (read-out: IC50): 0.02 µM

Nc1nnc(Sc2ncc([N+](=O)[O-])s2)s1 [compound 44, 5-(5-Nitrothiazol-2-ylsulfanyl)-1,3,4-thiadiazol-2-amine]
inhibition at 20 µM: 99.9% | IC50 (read-out: IC50): 0.03 µM

CN(C)C(=S)SSC(=S)N(C)C [compound 45, dimethylcarbamothioylsulfanyl N ,N-dimethylcarbamodithioate]
inhibition at 20 µM: 99.9% | IC50 (read-out: IC50): 0.05 µM

CCN(CC)C(=S)SSC(=S)N(CC)CC [compound 46, Tetraethylthioperoxydicarbonic diamide]
inhibition at 20 µM: 99.7%

[O-]n1ccccc1=S.[O-]n1ccccc1=S.[Zn+2] [compound 47, Bis[1-hydroxy-2(1H)-pyiridinethionato]zinc]
3CL-Pro Inhibition [%] Primary Screen (20 µM): 99.7% | IC50 (read-out: IC50): 2.46 µM

On1ccccc1=S [compound 48, 1-hydroxypyridine-2-thione]
IC50: 0.05 µM | inhibition at 20 µM: 101%

O=c1sn(-c2cccc3ccccc23)c(=O)n1Cc1ccccc1 [compound 49, 4-Benzyl-2-(1-naphthyl)-1,2,4-thiadiazolidine-3,5-dione]
inhibition at 20 µM: 101%

O=[N+]([O-])c1ccc(Sc2cccc[n+]2[O-])c2nonc12 [compound 50, 4-Nitro-1-[(1-oxidopyridin-2-yl)sulfanyl]-2,1,3-benzoxadiazole]
inhibition at 20 µM: 102% | IC50 (read-out: IC50): 0.1 µM

CCN1CCN(C(c2ccc(C(F)(F)F)cc2)c2ccc3cccnc3c2O)CC1 (centres unmarked) [compound 52, 7-[(4-Ethylpiperazin-1-yl)[4-(trifluoromethyl)phenyl]methyl]q uinolin-8-ol]
inhibition at 20 µM: 100% | IC50 (read-out: IC50): 0.15 µM

Cc1ccc(-n2sc(=O)n(Cc3ccc(F)cc3)c2=O)cc1 [compound 53, 4-(4-Fluorobenzyl)-2-(4-methylphenyl)-1,2,4-thiadiazolidine-3,5-dione]
IC50 (read-out: IC50): 0.15 µM

CCCCCCNC(=O)n1cc(F)c(=O)[nH]c1=O [compound 55, 5-Fluoro-N-hexyl-2,4-dioxo-1,2,3,4-tetrahydropyrimidine-1-carboxamide]
inhibition at 20 µM: 101%

O=C(CCl)c1ccccc1 [compound 56, 2-chloro-1-phenylethanone]
inhibition at 20 µM: 99.9% | IC50 (read-out: IC50): 0.19 µM
